# “And” between values parts separate entries of the source, which are not always exact repeats. Identical values can stand only once. “Also recorded” adds a separate entry of the source.
# Assays:
# [1] = system: Transforming growth factor beta 1 (TGFβ1); assay: Assay C: TGFβ1 mRNA by TaqMan RT-PCR; type: in vivo, Male Sprague-Dawley rats; details: for TGF-β1 mRNA (AU): relative to cyclophilin expression, mean ± SEM, eplerenone dose 100 mg/kg/day; for TGF-β (AU): mRNA, individual rats, incl. rat marked * excluded from statistics
# Protocol: The procedure of Assay B was expanded upon in a further study. […] Myocardial tissue from animals in each treatment group was examined after 7, 14, or 30 days of treatment.
# Potassium chloride supplementation was added to the saline solution in order to prevent the potential hypokalemia associated with aldosterone excess.
# At the time of the surgery, an Alzet 2002 osmotic minipump (Alza Corp., Palo Alto, Calif.) containing either vehicle (9% ethanol/87% propylene glycol/4% dH2O) or 1.0 mg/mL d-aldosterone (Sigma Chemical, St. Louis, Mo.) was inserted subcutaneously at the nape of the neck. Aldosterone was administered at a dose of 0.75 µg/hour. […] Animals were sacrificed from each group (n=8-13) after 7, 14, or 30 days of treatment.
# The fluorogenic 5′-nuclease assay (TaqMan PCR) using Applied Biosystems' 7700 Sequence Detection System (Applied Biosystems, Foster City, Calif.) allowed for real time detection/quantitation of a specific gene by monitoring the increase in fluorescence of a gene-specific, dye-labeled oligonucleotide probe. Probes for target and reference genes were labeled at the 5′-end with a 6-carboxyfluorescein (6FAM) reporter dye and at the 3′-end with a 6-carboxy-N,N,N′,N′-tetramethylrhodamine (TAMRA) quencher dye. When the probe was annealed to the target gene, fluorescence of 6FAM was prevented by the close proximity of TAMRA. The exonuclease activity of Taq polymerase released the dyes from the oligonucleotide probe by displacing the probe from the target sequence resulting in fluorescence excitation in direct proportion to the amount of target message present. Data analysis was performed using the Sequence Detection System software from Applied Biosystems.
# Primers and probes were designed using Oligo Primer Analysis Software, Version 5.0 (National Biosciences Inc. (NBI)-Wojciech Rychlik, Cascade, Colo.). Primers were synthesized by Life Technologies (Grand Island, N.Y.) and probes were synthesized by Applied Biosystems. Primer/probe sets were designed from known sequences of rat genes to be analyzed. All target gene values were normalized to a reference gene, constitutively expressed cyclophilin. Primer/probe sets sequences can be found in Table 8
# RNA was extracted from frozen (−70° C.) left ventricle (LV) tissue (approximately 10-20 mg) using 1.5 mL RNA-STAT 60 according to manufacturer's instructions (Leedo Medical Laboratories, Inc., Houston, Tex.). Briefly, tissues were homogenized using a tissue homogenizer equipped with a 5 mm probe (Ultra-Turrax T8 Homogenizer, IKA Works, Inc. Wilmington, N.C.). Following homogenization, an equal volume of molecular grade chloroform (Sigma Chemical Co., St. Louis, Mo.) was incubated with periodic mixing for 10 min at room temperature. Samples were centrifuged at 12,000 g for 10 min and RNA was precipitated from the top layer by adding an equal volume of molecular grade isopropanol (Sigma Chemical Co.) followed by an overnight incubation at −80° C. RNA was pelleted by centrifugation at 12,000 g, washed with 75% ethanol, and solubilized in nuclease-free water (Promega, Madison, Wis.).
# Double-stranded cDNA was synthesized by adding 400 ng RNA (4 uL) to a final volume of 20 uL containing 15% nuclease-free water (Promega, Madison, Wis.), 1×RT Buffer (Life Technologies, Grand Island, N.Y.), 10 mM DTT (Life Technologies), 0.5 mM each of dATP, dTTP, dGTP, dCTP (PE Biosystems, Foster City, Calif.), 2.5 μM Oligo d(T)15 (Oligo Therapeutics, Inc., Wilsonville, Oreg.), 40 units RNAsin (Promega), and 200 units SuperScript II Reverse Transcriptase (Life Technologies). The reactions were performed in thin-walled reaction tubes with caps (Applied Biosystems) to ensure accurate reaction temperatures.
# [2] = system: osteopontin; assay: Assay B: osteopontin mRNA in heart by quantitative RT-PCR (Taqman); type: in vivo, Male Sprague Dawley rats
# Protocol: Assay B: In Vivo Aldosterone Infusion Model Male Sprague Dawley rats (n=39; BW=250 g) 2. Aldosterone ([…], sc via alzet minipump) 2. […] Hearts were harvested and divided by half through a transverse section at the mid-ventricles: The upper half was stored into formalin. The bottom part was snap-frozen in liquid nitrogen for biochemical analysis. Determination of osteopontin and COX-2 was performed by quantitative RT-PCR (Taqman). Osteopontin was also identified in the heart by immunohistochemistry.
# [3] = system: interstitial collagen; assay: Assay B: myocardial fibrosis (interstitial collagen volume fraction, hydroxyproline concentration); type: in vivo, Male Sprague Dawley rats; details: aldosterone/salt treatment, 4 weeks
# Protocol: Assay B: In Vivo Aldosterone Infusion Model Male Sprague Dawley rats (n=39; BW=250 g) […] Uni-nephrectomy performed during implantation of mini-pumps 2. Aldosterone ([…], sc via alzet minipump) 2. […] Hearts were stained with hematoxylin&eosin and the collagen specific dye picro-sirius red and were analyzed for determination of interstitial collagen volume fraction and morphologic abnormalities (i.e. necrosis, vascular injury). Hydroxyproline concentration was measured in the frozen hearts.
# [4] = system: cyclooxgenase-2; assay: Assay A: immunostaining of hearts with cyclooxygenase-2 specific antibody; type: in vivo, Male Wistar rats; details: angiotensin II infused rats, eplerenone 100 mpk, aldosterone replacement in adrenalectomized rats
# Excerpt: Cycloxygenase-2 staining was also observed in the vascular smooth muscle cells of the media of coronary arteries, even when there was no evidence of morphologic alterations or inflammatory aggregates in the perivascular space (FIG. 26).
# [5] = system: MCP-1; assay: Assay B: MCP-1 mRNA expression at 28 days; type: in vivo, Male Sprague Dawley rats; details: aldosterone infused rats, 28 days (FIG. 46)
# Protocol: (§1) Assay B: In Vivo Aldosterone Infusion Model Male Sprague Dawley rats (n=39; BW=250 g) 2. Aldosterone (0.75 mg/hr, sc via alzet minipump) 2.
# [6] = system: IL-6; assay: Assay B: IL-6 mRNA expression at 28 days; type: in vivo, Male Sprague Dawley rats; details: aldosterone infused rats, 28 days (FIG. 46)
# Protocol: as §1
# [7] = system: stroke-prone spontaneously hypertensive rats; assay: Survival and cerebral injury in stroke-prone spontaneously hypertensive rats; type: in vivo
# [8] = system: angiotensin II infused, captopril treated stroke prone spontaneously hypertensive rats; assay: Histopathological scores for renal injury in angiotensin II infused, captopril treated stroke prone spontaneously hypertensive rats; type: in vivo; details: captopril treated stroke prone spontaneously hypertensive rats (FIG. 36)
# [9] = system: angiotensin II infused, captopril treated stroke prone spontaneously hypertensive rats; assay: Urinary protein excretion in angiotensin II infused, captopril treated stroke prone spontaneously hypertensive rats; type: in vivo; details: captopril treated stroke prone spontaneously hypertensive rats (FIG. 35)
# [10] = system: osteopontin; assay: Assay B: serum (circulating) osteopontin levels at 28 days; type: in vivo, Male Sprague Dawley rats; details: NaCl 1% drinking rats with aldosterone and eplerenone
# Protocol: as §1
compound,measurement,setting,value
C[C@]12CCC(=O)C=C1CC[C@@H]1[C@@H]2[C@@H](O)C[C@]2(C=O)[C@@H](C(=O)CO)CC[C@@H]12 [Aldosterone],TGF-β1 mRNA (AU),[1]; after 7 days of treatment,1.35 AU
same,TGF-β1 mRNA (AU),[1]; after 14 days of treatment,1.27 AU
same,TGF-β1 mRNA (AU),[1]; after 30 days of treatment,1.33 AU
same,TGF-β (AU),"[1]; data used for Table 17 (7-day protocol), listed as Aldosterone + salt",1.23 AU and 0.98 AU and 1.31 AU and 1.89 AU and 1.22 AU and 1.45 AU and 1.47 AU and 1.21 AU and 1.35 AU
same,TGF-β (AU),"[1]; data used for Table 18 (14-day protocol), listed as Aldosterone + salt",1.26 AU and 1.85 AU and 0.55 AU and 1.91 AU and 1.49 AU and 1.18 AU and 1.32 AU and 1.27 AU and 0.56 AU and 1.29 AU
same,TGF-β (AU),"[1]; data used for Table 19 (30-day protocol), listed as Aldosterone + salt",1.41 AU and 1.27 AU and 2.11 AU and 1.20 AU and 1.95 AU and 1.49 AU and 0.83 AU and 0.54 AU and 1.21 AU
same,Osteopontin mRNA upregulation,[2]; aldosterone/salt + vehicle vs control,7 fold
same,Osteopontin relative mRNA expression,"[2]; hearts of aldosterone/salt-treated rats, quantitative RT-PCR, eplerenone 100 mpk",12.25±1.7
same,"Myocardial fibrosis (interstitial collagen volume fraction, hydroxyproline concentration)",[3],absence of myocardial fibrosis
same,Cyclooxygenase-2 expression in the heart (immunostaining),[4],restored the presence of cycloxygenase-2
COC(=O)[C@@H]1CC2=CC(=O)CC[C@]2(C)[C@@]23O[C@@H]2C[C@@]2(C)[C@@H](CC[C@@]24CCC(=O)O4)[C@H]13 [Eplerenone],MCP-1 expression,[5],attenuated
same,TGF-β1 mRNA (AU),[1]; after 7 days of treatment,0.99 AU
same,TGF-β1 mRNA (AU),[1]; after 14 days of treatment,1.26 AU
same,TGF-β1 mRNA (AU),[1]; after 30 days of treatment,1.32 AU
same,TGF-β (AU),"[1]; data used for Table 17 (7-day protocol), listed as Eplerenone + aldosterone + salt",0.80 AU (2×) and 0.81 AU and 0.51 AU and 1.31 AU and 1.02 AU and 0.61 AU and 0.84 AU and 1.51 AU and 1.64 AU
same,TGF-β (AU),"[1]; data used for Table 18 (14-day protocol), listed as Eplerenone + aldosterone + salt",0.58 AU and 0.62 AU and 1.04 AU and 1.42 AU and 1.29 AU and 1.49 AU and 0.71 AU and 1.21 AU and 1.44 AU and 1.69 AU and 2.41 AU
same,TGF-β (AU),"[1]; data used for Table 19 (30-day protocol), listed as Eplerenone + aldosterone + salt",1.00 AU and 1.49 AU and 1.40 AU and 1.31 AU and 0.96 AU and 1.93 AU and 1.54 AU and 1.32 AU and 0.89 AU and 1.35 AU
same,IL-6 expression,[6],attenuated
same,Survival,[7]; stroke-prone spontaneously hypertensive rats (FIG. 37),increased survival
same,Cerebral injury,"[7]; stroke-prone spontaneously hypertensive rats (FIGS. 37, 38)",reduced cerebral injury; also recorded: decrease
same,Histopathological scores for renal injury,[8],reduction
same,Increased urinary protein excretion,[9],inhibition
same,Circulating (serum) osteopontin levels,[10],marked decrease
same,Cyclooxygenase-2 expression in the heart (immunostaining),[4],markedly reduced and in most cases completely prevented
same,Cyclooxygenase-2 expression in the heart (immunostaining),[4]; listed as eplerenone,prevention

# Source: patent US6716829B2, “Aldosterone antagonist and cyclooxygenase-2 inhibitor combination therapy to prevent or treat inflammation-related cardiovascular disorders” (Pharmacia Corporation, priority 2000, dated 2004)
